Values quoted from earlier work in patent US10231936B2, “Delayed release pharmaceutical formulations” (Euro-Celtique S.A., priority 2000, dated 2019).
Counter-ions that a name gives are not always drawn. Like-named read-outs stand apart in the source and are kept apart here.

Columns and labels:
[1] = by mouth
[2] = conventional normal release dosage form
[3] = spheroids in capsules

Row | Compound | bioavailability [1] | elimination half-life [2] | also measured
1 | C[C@]12C=CC(=O)C=C1CC[C@@H]1[C@@H]2[C@@H](O)C[C@@]2(C)[C@H]1CC[C@]2(O)C(=O)COC(=O)c1cccc(S(=O)(=O)[O-])c1.[Na+] [PSMB, Prednisolone sodium metasulphobenzoate] | very low bioavailability |  | 
2 | Cc1ccc(-c2nc3ccc(C)cn3c2CC(=O)N(C)C)cc1 [Zolpidem tartrate] |  | ~2 h | 
3 | CCC(=O)O[C@]1(C(=O)SCF)[C@H](C)C[C@H]2[C@@H]3C[C@H](F)C4=CC(=O)C=C[C@]4(C)[C@@]3(F)[C@@H](O)C[C@@]21C [Fluticasone, Fluticasone Propionate] | low bioavailability |  | 
4 | CN1CCN(C(=O)OC2c3nccnc3C(=O)N2c2ccc(Cl)cn2)CC1 (stereo not drawn) [Zopiclone] |  | ~2 h | 
5 | CCCC1O[C@@H]2C[C@H]3[C@@H]4CCC5=CC(=O)C=C[C@]5(C)[C@H]4[C@@H](O)C[C@]3(C)[C@]2(C(=O)CO)O1 (stereo partly drawn) [Budesonide] |  |  | total absorbed Budesonide absorbed in the ileum and ascending colon ([3]; fasting healthy subjects): 68%; total absorbed Budesonide absorbed in the ileum and ascending colon ([3]; fed healthy subjects): 69%
